# Where “and” joins values, the source holds several entries; their conditions need not be identical. Equal entries are not always repeated.
# What was measured:
# [1] = tested on: HSA^LR mice; assay: Muscle contraction (myotonia) by needle electromyography in MyD model mice, intraperitoneal erythromycin; format: in vivo, mouse; conditions: 150 mg/kg intraperitoneal once daily for 8 days, quadriceps femoris muscle, 24 h after final administration, n=3
# Description: The animals were divided into three groups: an erythromycin administration MyD group, a physiological saline administration MyD group and a control (wild-type mice) group (n=3 (1 male, 2 females) per group). The dose of erythromycin was 150 mg/kg, and this dose was repeatedly administered once daily for 8 days. The physiological saline administration MyD group was repeatedly given physiological saline once daily for 8 days. Nothing was administered to the control (wild-type mice) group.
# Twenty-four hours after the final administration, needle electromyography was performed in the quadriceps femoris muscle in the mice under anesthesia to record myotonic discharge. […]
# [2] = tested on: skeletal muscle chloride channel (Clcn1) gene splicing; assay: Aberrant splicing of Clcn1 gene in quadriceps femoris muscle of MyD model mice, usual-dose oral erythromycin; format: in vivo, mouse; conditions: HSA^LR mice, 50 mg/kg gavage once daily for 21 days, vs physiological saline MyD group
# Description: Usual-dose erythromycin was orally administered to MyD model mice, and its effects on muscle contraction in the quadriceps femoris muscle and on aberrant splicing of the skeletal muscle chloride channel (Clcn1) gene in the quadriceps femoris muscle were examined. The same MyD model mice (HSA^LR mice) and wild-type mice as in Example 3 were used. As with the case in Example 4, “Erythrocin (registered trademark) dry syrup […]% (erythromycin ethylsuccinate dry syrup)” (Abbott) was dissolved at 100 mg/mL in purified water before use. The animals were divided into three groups: an erythromycin 50 mg/kg administration MyD group, a physiological saline administration MyD group and a control (wild-type mice) group (n=3 per group). The administration was gavage administration and performed once daily for 21 consecutive days. On the day of the final administration, the quadriceps femoris muscle was dissected from each mouse. In the same manner as in Example 3, RT-PCR was performed, and the normally spliced product and the aberrantly spliced product were separately quantified. Statistical analysis was performed using t-test.
# [3] = tested on: skeletal muscle chloride channel (Clcn1) gene splicing; assay: Aberrant splicing of Clcn1 gene in quadriceps femoris muscle of MyD model mice, intraperitoneal erythromycin; format: in vivo, mouse; conditions: HSA^LR mice, 150 mg/kg intraperitoneal once daily for 8 days, vs physiological saline MyD group
# Source text: Erythromycin was intraperitoneally administered to MyD model mice, and its effects on muscle contraction in the quadriceps femoris muscle and on aberrant splicing of the skeletal muscle chloride channel (Clcn1) gene in the quadriceps femoris muscle were examined. The MyD model mice used were HSA^LR mice, which were kindly provided by Dr. Charles Thornton (University of Rochester) and bred in the laboratory animal facility of Osaka University. The HSA^LR mice are transgenic animals prepared by genomic integration of a hACTA gene (human gene constitutively expressed in myocytes) containing 3′-terminal CTG repeats expanded to 220, and manifest the symptoms of MyD upon the expression of mRNA with expanded CUG repeats in the myocytes (Science, 2000, 289 (5485), 1769-73). As a control, wild-type mice (FVB/NJcl mice, purchased from CLEA Japan) were used. Male and female mice aged 8 weeks were used for the experiment. The erythromycin used was “Erythrocin (registered trademark) for intravenous injection 500 mg (erythromycin lactobionate for injection)” (Abbott). This product was dissolved at 50 mg/mL in physiological saline before use. […] The normal PCR product and the aberrant PCR product were separately quantified with an image analyzer (Typhoon 9410, GE), and the percentage of the normal product in the total RT-PCR product was calculated. […]
# [4] = tested on: HSA^LR mice; assay: Muscle contraction (myotonia) by needle electromyography in MyD model mice, usual-dose oral erythromycin; format: in vivo, mouse; conditions: 50 mg/kg gavage once daily for 21 days, quadriceps femoris muscle, n=3
# Description: Usual-dose erythromycin was orally administered to MyD model mice, and its effects on muscle contraction in the quadriceps femoris muscle and on aberrant splicing of the skeletal muscle chloride channel (Clcn1) gene in the quadriceps femoris muscle were examined. The same MyD model mice (HSA^LR mice) and wild-type mice as in Example 3 were used. As with the case in Example 4, “Erythrocin (registered trademark) dry syrup […]% (erythromycin ethylsuccinate dry syrup)” (Abbott) was dissolved at 100 mg/mL in purified water before use. The animals were divided into three groups: an erythromycin 50 mg/kg administration MyD group, a physiological saline administration MyD group and a control (wild-type mice) group (n=3 per group). The administration was gavage administration and performed once daily for 21 consecutive days. On the day of the final administration, needle electromyography was performed in the quadriceps femoris muscle in the mice under anesthesia to record myotonic discharge.
# [5] = tested on: Atp2a1 gene exon 22 splicing; assay: Aberrant splicing of Atp2a1 exon 22 in MyD model cells (RT-PCR); format: cell-based, mouse; conditions: C2C12-DMPK800R cells, erythromycin 25 or 50 μM, 72 hours
# Description: The MyD model cells were treated with erythromycin, and whether erythromycin would correct aberrant splicing in exon 22 of the Atp2a1 gene was examined. The same MyD model cells as in Example 1 (C2C12-DMP[…]) were used. The same erythromycin as in Example 1 was used. To the medium of the MyD model cells, erythromycin was added at 0, 25 or 50 μM, and after 72 hours, the total RNA was extracted using RNeasy Mini Plus Kit (trade name, Qiagen). As a control, normal C2C12 cells were cultured in a medium without erythromycin, and the total RNA was similarly extracted. For RT-PCR, SuperScript III First-Strand Synthesis System (Invitrogen) was used to prepare cDNA, and after treatment with RNase H, the segment of interest was amplified using the Atp2a1 exon 22 RT primers shown below. The RT-PCR product was electrophoresed on a 2% agarose gel and then stained using GelRed. The normal PCR product and the aberrant PCR product were separately quantified with an image analyzer (Typhoon 9410, GE). Atp2a1 exon 22 RT primers
# [6] = tested on: C2C12-DMPK800R cells; assay: RNA foci formation in MyD model cells (FISH); format: cell-based, mouse; conditions: erythromycin 25 or 50 μM, 72 hours, vs medium without erythromycin
# Description: MyD model cells were treated with erythromycin, and the number of RNA foci was measured by the FISH (fluorescence in situ hybridization) method.
# The MyD cell model used was cells established by transfection of a DMPK gene containing 800 CTG repeats into C2C12 cells (C2C12-DMPK800R, Nucleic Acids Research, 2014, 42 (10), 6591-6602). The establishment of the C2C12-DMPK800 cells was performed in the following procedure. Both a plasmid (pLC16) with a DMPK gene sequence containing 800 CTG repeats in the 3′-untranslated region and a plasmid expressing PhiC31 integrase were transfected into the C2C12 mouse myoblast cell line using Nucleofector (trade name, Lonza), and stably expressing cells were selected using a selection medium with puromycin. Next, a plasmid expressing Cre recombinase was transfected into the stably expressing cells, and a clone in which the transcription of 800 CUG had been activated was selected using a selection medium with hygromycin. […]
# The MyD model cells were cultured in DMEM medium supplemented with 10% FBS and penicillin/streptomycin under the conditions of 37° C. and 5% CO2. […] After mounting in Vectashield with DAPI (trade name, Vector Laboratories), the number of RNA foci in the nucleus was counted with a fluorescence microscope (Keyence PZ-9000).
# [7] = tested on: skeletal muscle chloride channel (Clcn1) gene splicing; assay: Aberrant splicing of Clcn1 gene in quadriceps femoris muscle of MyD model mice, high-dose oral erythromycin; format: in vivo, mouse; conditions: HSA^LR mice, 300, 600, 900 mg/kg gavage once daily for 5 days
# Description: High-dose erythromycin was orally administered to MyD model mice, and its effect on aberrant splicing of the skeletal muscle chloride channel (Clcn1) gene in the quadriceps femoris muscle was examined. The same MyD model mice (HSA^LR mice) and wild-type mice as in Example 3 were used. The erythromycin used was “Erythrocin (registered trademark) dry syrup […]% (erythromycin ethylsuccinate dry syrup)” (Abbott). This product was dissolved at 100 mg/mL in purified water before use. The animals were divided into five groups: an erythromycin 300 mg/kg administration MyD group, an erythromycin 600 mg/kg administration MyD group, an erythromycin 900 mg/kg administration MyD group, a physiological saline administration MyD group and a control (wild-type mice) group (n=3 per group). The administration was gavage administration and performed once daily for five consecutive days. On the day of the final administration, the quadriceps femoris muscle was dissected from each mouse. In the same manner as in Example 3, RT-PCR was performed, the normally spliced product and the aberrantly spliced product were separately quantified, and the percentage of the normal product in the total RT-PCR product was calculated. Statistical analysis was performed using t-test.
smiles,measurement,setting,value
"CC[C@H]1OC(=O)[C@H](C)[C@@H](O[C@H]2C[C@@](C)(OC)[C@@H](O)[C@H](C)O2)[C@H](C)[C@@H](O[C@@H]2O[C@H](C)C[C@H](N(C)C)[C@H]2O)[C@](C)(O)C[C@@H](C)C(=O)[C@H](C)[C@@H](O)[C@]1(C)O [erythromycin, (2R,3S,4S,5R,6R,8R,10R,11R,12S,13R)-5-(3,4,6-trideoxy-3-dimethylamino-β-D-xylo-hexopyranosyloxy)-3-(2,6-dideoxy-3-C-methyl-3-O-methyl-α-L-ribo-hexopyranosyloxy)-6,11,12-trihydroxy-2,4,6,8,10,12-hexamethyl-9-oxopentadecan-13-olide]","severity of muscle contraction (frequency of myotonic discharge), per mouse",[1],1 (myotonic discharge was observed in less than 50% of the needle insertions.) and no muscle contraction
same,percentage of the normal RT-PCR product (Clcn1),[2],significantly higher percentage of the normal RT-PCR product
same,percentage of the normal product in the total RT-PCR product (Clcn1 exon 7a),[3],significantly higher percentage of the normal RT-PCR product
same,"severity of muscle contraction (frequency of myotonic discharge), per mouse",[4],2 (myotonic discharge was observed in 50% or more and less than 90% of the needle insertions.) and 1 (myotonic discharge was observed in less than 50% of the needle insertions.)
same,percentage of the normal product in the total RT-PCR product (Atp2a1 exon 22),[5],significantly increased the percentage of the normal product to a level observed in the normal C2C12 cells
same,percentage of RNA foci positive cells,[6],significantly decreased the percentage of RNA foci positive cells in a dose dependent manner
same,correction of aberrant splicing of the Clcn1 gene (percentage of normal product),[7],significantly corrected the aberrant splicing of the Clcn1 gene in a dose dependent manner

# From patent US10500223B2, “Therapeutic agent for myotonic dystrophy” (Osaka University, priority 2015, dated 2019)
